Bridge positions count the residues as written; N and C are the ends. Square brackets hold non-standard residues; d marks the D form. Ends that are not written are not given here. Peptide text beside a SMILES is read from it. * marks the point of attachment. Biotin = O=C1N[C@H]2[C@H](CS[C@H]2CCCCC(=O)*)N1; Nle = CCCC[C@H](N)C(=O)O; Abu = CC[C@H](N)C(=O)O
Experiments:
[1] = Solubility in water; format: physicochemical
Description: To increase solubility, its sequence was elongated at the N- and C-terminals by adding hydrophilic amino acids from the protein sequence. […] These modifications were introduced to prevent the oxidation of methionine and cysteine.

[2] = biological target: T1, PD-1 (Homo sapiens, UniProt Q15116); experiment: SPR analysis: PD-1 titrated over immobilized biotinylated peptides or PD-L1; format: binding; conditions: SPR KD 198 µM versus 2.04 µM
T1 construct: purchased Recepton Company, Poland R1–001–03
T1 sequence (Q15116 25-288): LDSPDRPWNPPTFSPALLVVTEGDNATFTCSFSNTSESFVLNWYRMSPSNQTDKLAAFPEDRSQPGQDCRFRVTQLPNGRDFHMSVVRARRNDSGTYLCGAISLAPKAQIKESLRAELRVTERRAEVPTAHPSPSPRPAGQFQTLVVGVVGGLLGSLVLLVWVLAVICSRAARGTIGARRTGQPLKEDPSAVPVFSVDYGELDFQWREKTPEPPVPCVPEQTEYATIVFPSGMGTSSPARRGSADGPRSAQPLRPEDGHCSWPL
Protocol: To obtain the kinetic parameters of the peptide/protein interaction the SPR technique was used.
Biacore T200 equipment (Cytiva, Marlborough, USA) was used to perform SPR analysis according to the manufacturer's protocol. […] All measurements were performed using PBS-P as a running buffer; the flow rate was set to 30 μl/min at 25°C. The chip was regenerated with 1.5 M NaCl and 10 mM glycine pH 3. The obtained data were analysed using Biacore T200 Evaluation Software (Cytiva, Marlborough, USA).
Results were calculated using Biacore T200 Evaluation Software, from at least three independent titration analyses. The 1:1 binding model was applied.

[3] = biological target: T2, PD-1/PD-L1 complex (Homo sapiens, UniProt Q15116); experiment: PD-1 T cell NF-κB::eGFP reporter co-culture assay; format: cell-based; conditions: PD-1 reporter cells + TCS CD86/PD-L1; peptide 150.00-5.56 µM; 90 min preincubation, 24 h co-culture; flow cytometry; normalized to PD-1 reporter/TCS CD86
T2 construct: expressed in transfected cells
T2 sequence (Q15116 25-288, one chain of several): as the sequence (Q15116 25-288) above
Protocol: Moreover, NF-κB-eGFP activation (signal 2) is enhanced by the interaction of CD86 on TCS with CD28 on modified Jurkat cells. […] The peptides were tested at concentrations between 150.00 and 5.56 µM.
The experiment was performed on 96-well tissue culture-treated transparent plates by using RPMI 1640 medium containing 10 % FBS. The cells were seeded into the wells at the density of 5 × 10^4 cells/well for reporter cells and 2 × 10^4 cells/well for TCS cell lines. The peptides were prepared in three-fold serial dilutions in concentrations ranging from 150.00 to 5.56 μM and were preincubated with the reporter cells for 90 min. Subsequently, cells of the second cell line were added; co-culture was performed for 24 h at 37°C under a 5 % CO2 atmosphere. […] After 24 h, the cells were harvested, stained with APC-conjugated mCD45.2 mAb to exclude TCS from the analysis, and eGFP expression was measured by flow cytometry. The mean and standard deviation values of the gMFI of the viable cell population were determined. The experiment was performed at least three times in duplicate. […] The flow cytometry analysis was performed on a FACSCalibur flow cytometer (Becton Dickinson Immunocytometry System, USA) by using CellQuest software. Data were analysed with FlowJo (version 10.0.6, Tree Star, Ashland, OR) and GraphPad Prism (version 8, GraphPad Software, Inc., La Jolla, CA).

[4] = Peptide stability in RPMI 1640 medium with 10 % FBS; conditions: RPMI 1640 + 10 % heat-inactivated FBS; for Additional decrease in peptide content after 24 h of incubation: 37°C; for Stability in the medium: 0 and 24 h
Protocol: Samples were collected at 0 h and after 24 h of incubation and analysed by RP-HPLC. The peptide content in the samples was determined by comparing the corresponding peak areas to those of control samples, which constituted the corresponding peptides dissolved in H2O at 0 h. The conditions selected for the stability experiment were intended to simulate those used for cellular research.
Samples were prepared by dissolving the peptides in H2O and adding them to the medium in the ratio of 1:3 (v:v). The final concentration of the peptides in the sample was 100 μM. The samples before analysis were collected at two time points: 0 h and 24 h of incubation (37°C with continuous stirring). The samples were then frozen in liquid N2 and stored at -80°C until the end of the experiment. Prior to analysis, the samples were thawed on ice, suspended in a 4-fold excess of absolute ethanol (v:v), and centrifuged (15,000 rpm, 4°C, 20 min). The supernatant was then transferred to test tubes, evaporated using a vacuum concentrator, then dissolved in 100 μl of 0.1 % trifluoroacetic acid (TFA) in H2O. The analysis was performed by analytical RP-HPLC using a Luna C18(2) (250 mm × 4.6 mm, 5 μm) column and a linear gradient from 5 % B to 100 % B in A over 60 min (A: 0.1 % TFA in H2O; B: 0.08 % TFA in 80 % ACN in H2O). Peptides that dissolved in H2O and the medium with 10 % FBS (without peptides) were used as controls.

[5] = system: Jurkat E6.1 cells; experiment: Cell viability assay (CellTiter-Glo), Jurkat E6.1 cells; conditions: 24 h; for Effect on Jurkat E6.1 cells at lower concentrations: concentrations below the highest tested (150.00 to 5.56 µM range); for Number of living, metabolically active Jurkat E6.1 cells: highest tested concentration (150.00 µM), normalized to untreated cells, three experiments in triplicate
Protocol: (§2) The influence of the peptides on Jurkat E6.1 cells and genetically modified BW5417 (T cell stimulators, TCS Ctrl) cells was subsequently examined. […] Cell viability was measured after 24 h of incubation with peptide concentrations ranging from 150.00 to 5.56 µM. The CellTiter-Glo® luminescence-based assay was used to estimate the number of viable cells. This test allowed determination of adenosine triphosphate (ATP), which is related to the metabolically active cells and proportional to the number of living cells . The results were compared and normalized to untreated cells (Fig. 5A).
(§3) Cell line viability was examined on two cell lines – Jurkat E6.1 cells and TCS Ctrl cells. The experiments were performed on 96-well solid white plates for cell culture. Jurkat E6.1 cells and TCS Ctrl cells were seeded into wells on the day of the experiment at the density of 2 × 10^4 cells per well in 50 µl RPMI 1640 medium containing 10 % FBS. Subsequently, 50 µl of peptides at 150 to 1.90 µM concentrations were added to the wells. Cell viability was measured using 100 µl of Cell Titter-Glo (Promega Corporation, #G7570) added to the wells. Luminescence was measured on a Spark M10 plate reader (Tecan, Switzerland) with an integration time of 0.5 s. The experiment was performed at least three times, and the results were analysed by GraphPad Prism 8 software.

[6] = system: TCS Ctrl cells; experiment: Cell viability assay (CellTiter-Glo), TCS Ctrl cells; format: cell-based; conditions: highest tested concentration, 24 h
Protocol: as §2, §3

[7] = system: murine primary lymphocytes and Jurkat cells; conditions: cited from earlier work
Protocol: (§1) To better examine the potency of the PD-L1-derived peptides at the cellular level, competitive assays and stimulation assays were performed. […] These differences in obtained results may be due to the fact that in SPR and ELISA, the peptide is immobilized to the surface of the sensor or the plate, while it is in the solution in cellular assays. Moreover, the immobilization of the peptide may ...

[8] = system: Jurkat E6.1 and HCT-116 cells; conditions: co-culture model with activated Jurkat E6.1 and HCT-116 cells; cited from earlier work
Protocol: as §1

[9] = biological target: T3, PD-1 (Recepton) (human, UniProt Q15116 25-170); experiment: SPR; Biacore T200; biotinylated peptides (~800 RU; L1 ~500 RU) or biotinylated PD-L1 immobilised on an SA sensor chip; PD-1 injected at 10 to 0.31 µM; PBS-P running buffer, 30 µl/min, 25°C; conditions: both partners purified
T3 construct: also called PD-1 protein; source: bought: Recepton Company, Poland, #R1–001–03
T3 sequence (Q15116 25-170): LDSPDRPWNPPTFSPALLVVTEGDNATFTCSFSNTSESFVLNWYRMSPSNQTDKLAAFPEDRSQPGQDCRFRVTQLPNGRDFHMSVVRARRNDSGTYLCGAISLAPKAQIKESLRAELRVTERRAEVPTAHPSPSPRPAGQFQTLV

[10] = pH 8.0, 100 μM peptide, RP-HPLC

For `CCCC[C@H](NC(=O)[C@H](CCC(=O)O)NC(=O)[C@H](Cc1c[nH]c2ccccc12)NC(=O)[C@H](Cc1ccc(O)cc1)NC(=O)[C@@H](NC(=O)[C@@H](NC(=O)[C@H](CC(C)C)NC(=O)[C@H](C)NC(C)=O)[C@@H](C)CC)C(C)C)C(=O)N[C@@H](CCC(=O)O)C(=O)N[C@@H](CC(=O)O)C(=O)N[C@@H](CCCCN)C(=O)N[C@@H](CC(N)=O)C(=O)N[C@H](C(=O)N[C@H](C(=O)N[C@@H](CCC(N)=O)C(=O)N[C@@H](Cc1ccccc1)C(=O)N[C@H](C(=O)N[C@@H](Cc1c[nH]cn1)C(=O)NCC(=O)N[C@@H](CCC(=O)O)C(=O)N[C@@H](CCC(=O)O)C(=O)N[C@@H](CC(=O)O)C(N)=O)C(C)C)[C@@H](C)CC)[C@@H](C)CC` [Peptide L3] (HELM PEPTIDE1{[ac].A.L.I.V.Y.W.E.[Nle].E.D.K.N.I.I.Q.F.V.H.G.E.E.D.[am]}$$$$V2.0), the “Solubility in water” value [1] was “no positive effect on the solubility”.

For `CCCC[C@H](NC(=O)[C@H](CCC(=O)O)NC(=O)[C@H](Cc1c[nH]c2ccccc12)NC(=O)[C@H](Cc1ccc(O)cc1)NC(=O)[C@@H](NC(=O)[C@@H](NC(=O)[C@H](CC(C)C)NC(=O)[C@H](C)NC(C)=O)[C@@H](C)CC)C(C)C)C(=O)N[C@@H](CCC(=O)O)C(=O)N[C@@H](CC(=O)O)C(=O)N[C@@H](CCCCN)C(=O)N[C@@H](CC(N)=O)C(=O)N[C@H](C(=O)N[C@H](C(=O)N[C@@H](CCC(N)=O)C(=O)N[C@@H](Cc1ccccc1)C(=O)N[C@H](C(=O)N[C@@H](Cc1c[nH]cn1)C(=O)NCC(=O)N[C@@H](CCC(=O)O)C(=O)N[C@@H](CCC(=O)O)C(=O)N[C@@H](CC(=O)O)C(=O)N[C@@H](CC(C)C)C(=O)N[C@@H](CCCCN)C(=O)N[C@H](C(=O)N[C@@H](CCC(N)=O)C(=O)N[C@@H](Cc1c[nH]cn1)C(=O)N[C@@H](CO)C(N)=O)C(C)C)C(C)C)[C@@H](C)CC)[C@@H](C)CC` [Peptide L4] (HELM PEPTIDE1{[ac].A.L.I.V.Y.W.E.[Nle].E.D.K.N.I.I.Q.F.V.H.G.E.E.D.L.K.V.Q.H.S.[am]}$$$$V2.0), the “Solubility in water” value [1] was “no positive effect on the solubility”.

For `CCCC[C@H](NC(=O)[C@H](CCC(=O)O)NC(=O)[C@H](Cc1c[nH]c2ccccc12)NC(=O)[C@H](Cc1ccc(O)cc1)NC(=O)[C@@H](NC(=O)[C@@H](NC(=O)[C@H](CC(C)C)NC(=O)[C@H](C)NC(=O)[C@H](C)NC(=O)[C@H](CC(C)C)NC(=O)[C@H](CC(=O)O)NC(=O)[C@H](CC(C)C)NC(=O)[C@H](CCC(N)=O)NC(=O)[C@H](CCCCN)NC(=O)[C@H](CCC(=O)O)NC(C)=O)[C@@H](C)CC)C(C)C)C(=O)N[C@@H](CCC(=O)O)C(=O)N[C@@H](CC(=O)O)C(=O)N[C@@H](CCCCN)C(=O)N[C@@H](CC(N)=O)C(=O)N[C@H](C(=O)N[C@H](C(=O)N[C@@H](CCC(N)=O)C(=O)N[C@@H](Cc1ccccc1)C(=O)N[C@H](C(N)=O)C(C)C)[C@@H](C)CC)[C@@H](C)CC` [Peptide L5] (HELM PEPTIDE1{[ac].E.K.Q.L.D.L.A.A.L.I.V.Y.W.E.[Nle].E.D.K.N.I.I.Q.F.V.[am]}$$$$V2.0), the “Solubility in water” value [1] was “no positive effect on the solubility”.

For `CCCC[C@H](NC(=O)[C@H](CCC(=O)O)NC(=O)[C@H](Cc1c[nH]c2ccccc12)NC(=O)[C@H](Cc1ccc(O)cc1)NC(C)=O)C(=O)N[C@@H](CCC(=O)O)C(=O)N[C@@H](CC(=O)O)C(=O)N[C@@H](CCCCN)C(=O)N[C@@H](CC(N)=O)C(=O)N[C@H](C(=O)N[C@H](C(=O)N[C@@H](CCC(N)=O)C(N)=O)[C@@H](C)CC)[C@@H](C)CC` [Peptide L6] (HELM PEPTIDE1{[ac].Y.W.E.[Nle].E.D.K.N.I.I.Q.[am]}$$$$V2.0), the “Solubility in water” value [1] was “no positive effect on the solubility”.

In the case of `CCCC[C@H](NC(=O)[C@H](CC)NC(=O)[C@H](CCCNC(=N)N)NC(=O)[C@H](Cc1ccc(O)cc1)NC(=O)[C@@H](NC(C)=O)C(C)C)C(=O)N[C@H](C(=O)N[C@@H](CO)C(=O)N[C@@H](Cc1ccc(O)cc1)C(=O)NCC(=O)NCC(=O)N[C@@H](C)C(=O)N[C@@H](CC(=O)O)C(=O)N[C@@H](Cc1ccc(O)cc1)C(=O)N[C@@H](CCCCN)C(=O)N[C@@H](CCCNC(=N)N)C(=O)N[C@H](C(=O)N[C@H](C(N)=O)[C@@H](C)O)[C@@H](C)CC)[C@@H](C)CC` [Peptide L7] (HELM PEPTIDE1{[ac].V.Y.R.[Abu].[Nle].I.S.Y.G.G.A.D.Y.K.R.I.T.[am]}$$$$V2.0), the “KD of (L7) relative to (L11), fold weaker” value [2] is reported as “approximately 97 fold” and the “Restoration of eGFP expression in the reporter assay” value [3] is reported as “concentration-dependent effect”.

For `CCCC[C@@H]1NC(=O)[C@@H](NC(=O)[C@H](CCCNC(=N)N)NC(C)=O)CSSC[C@@H](C(=O)N[C@@H](CCCNC(=N)N)C(=O)N[C@H](C(N)=O)[C@@H](C)CC)NC(=O)[C@H](Cc2ccc(O)cc2)NC(=O)[C@H](CC(=O)O)NC(=O)[C@H](C)NC(=O)[C@H](CO)NC(=O)CNC(=O)[C@H](Cc2ccc(O)cc2)NC(=O)[C@H](CO)NC(=O)[C@H]([C@@H](C)CC)NC1=O` [Peptide L12], the “Decrease in the amount of peptide at 0 h compared to control” value ([4]; pH 8.0, 100 μM peptide, 0 h, RP-HPLC) was “approximately 10%”, the “Additional decrease in peptide content after 24 h of incubation” value [4, 10] was about 11% and the “Stability in the medium” value ([4]; RP-HPLC) was “highest stability”. For the same molecule, the “Effect on Jurkat E6.1 cells at lower concentrations” value [5] was “no negative effects at lower concentrations”, the “Number of living, metabolically active Jurkat E6.1 cells” value [5] was 38% and the “Effect on TCS Ctrl cell viability” value [6] was “significant decrease in cell viability”.

For `CCCC[C@@H]1NC(=O)[C@@H](NC(=O)[C@H](CCCNC(=N)N)NC(C)=O)CSSC[C@@H](C(=O)N[C@@H](CCCNC(=N)N)C(=O)N[C@H](C(N)=O)[C@@H](C)CC)NC(=O)[C@H](Cc2ccc(O)cc2)NC(=O)[C@H](CC(=O)O)NC(=O)[C@H](C)NC(=O)[C@H](Cc2ccccc2)NC(=O)CNC(=O)[C@H](Cc2ccc(O)cc2)NC(=O)[C@H](CO)NC(=O)[C@H]([C@@H](C)CC)NC1=O` [Peptide L13], the “Effect on Jurkat E6.1 cells at lower concentrations” value [5] was “no negative effects at lower concentrations” and the “Number of living, metabolically active Jurkat E6.1 cells” value [5] was 3%.

For `CC(=O)N[C@@H](C)C(=O)N[C@@H](CC(=O)O)C(=O)N[C@@H](Cc1ccc(O)cc1)C(=O)N[C@@H](CCCCN)C(=O)N[C@@H](CCCNC(=N)N)C(N)=O` [Peptide L15] (Ac-ADYKR-NH2), the “Amount of peptide at 0 h, relative to control” value ([4]; pH 8.0, 100 μM peptide, 0 h, RP-HPLC peak area vs peptide in H2O at 0 h, three independent experiments) was 88%, the “Additional decrease in peptide content after 24 h of incubation” value [4, 10] was 12% and the “Stability in the medium” value ([4]; RP-HPLC) was “least concentration fluctuation”. For the same molecule, the “Restoration of eGFP expression in the reporter assay” value [3] was “concentration-dependent effect”.

For GADYKRITVKVN [PL120131], the “Apoptotic signal induced by sPD-L1” value [7] is given as “reverses the apoptotic signal”.

In the case of “RTMIWYpGAWYKRI [Peptide P1.3, Wang et al. peptide with D-proline in the loop and a tryptophan zipper]”, the “IL-2 secretion” value [8] is given as “has the ability to restore IL-2 secretion”.

Biotin-GGGGGGCYR[Abu][Nle]ISYGGADYKRICV (disulfide 7-23) [biotin-GGGGG-PD-L1(110–128)^(V111C-T127C) (L10)] gave a Kd [9] of 22 µM.

In the case of Biotin-GGGGGVYR[Abu][Nle]ISYGGADYKRIT [biotin-GGGGG-PD-L1(111–127) (L7)], the Kd [9] is reported as 198 µM.

Work on Biotin-GGGGGR[Abu][Nle]ISYGGADYKRI [biotin-GGGGG-PD-L1(113–126) (L8)] yielded a Kd [9] of 14.9 µM.
